In ChEMBL document CHEMBL2074134, “Identification and characterization of human organic anion transporter 3 expressing predominantly in the kidney” (Mol Pharmacol, 2001):

Key:
[1] = target: T1, Organic anion transporter 3 (Homo sapiens, UniProt Q8TCC7); assay: (§1) TP_TRANSPORTER: uptake in Xenopus laevis oocytes; type: functional, cell-based; settings: oocyte
T1 sequence (Q8TCC7 whole entry): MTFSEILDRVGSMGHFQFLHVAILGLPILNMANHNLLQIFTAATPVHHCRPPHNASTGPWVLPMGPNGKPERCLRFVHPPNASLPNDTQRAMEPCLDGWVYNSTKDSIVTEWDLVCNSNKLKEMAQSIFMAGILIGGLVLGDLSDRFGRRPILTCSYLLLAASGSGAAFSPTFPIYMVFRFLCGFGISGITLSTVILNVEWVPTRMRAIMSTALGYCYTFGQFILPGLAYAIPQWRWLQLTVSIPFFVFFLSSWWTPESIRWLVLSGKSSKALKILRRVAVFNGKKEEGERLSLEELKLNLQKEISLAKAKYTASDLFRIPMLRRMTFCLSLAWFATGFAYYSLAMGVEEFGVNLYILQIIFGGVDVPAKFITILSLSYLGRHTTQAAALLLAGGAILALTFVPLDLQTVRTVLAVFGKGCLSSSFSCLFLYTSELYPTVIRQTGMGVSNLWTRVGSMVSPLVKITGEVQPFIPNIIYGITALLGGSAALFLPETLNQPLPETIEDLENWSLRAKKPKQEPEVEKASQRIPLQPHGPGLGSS

[2] = target: T1, Organic anion transporter 3; assay: TP_TRANSPORTER: inhibition of E1S uptake (E1S: 0.05 uM, Probenecid: 5 uM) in Xenopus laevis oocytes; type: functional, cell-based; settings: oocyte
[3] = target: T1, Organic anion transporter 3; assay: TP_TRANSPORTER: inhibition of E1S uptake (E1S: 0.05 uM, Bumetanide: 5 uM) in Xenopus laevis oocytes; type: functional, cell-based; settings: oocyte
[4] = target: T1, Organic anion transporter 3; assay: TP_TRANSPORTER: inhibition of E1S uptake (E1S: 0.05 uM, Quinidine: 5 uM) in Xenopus laevis oocytes; type: functional, cell-based; settings: oocyte
[5] = target: T1, Organic anion transporter 3; assay: TP_TRANSPORTER: inhibition of E1S uptake (E1S: 0.05 uM, DHEAS: 5 uM) in Xenopus laevis oocytes; type: functional, cell-based; settings: oocyte
[6] = target: T1, Organic anion transporter 3; assay: TP_TRANSPORTER: inhibition of E1S uptake (E1S: 0.05 uM, Corticosterone: 5 uM) in Xenopus laevis oocytes; type: functional, cell-based; settings: oocyte
[7] = target: T1, Organic anion transporter 3; assay: TP_TRANSPORTER: inhibition of E1S uptake (E1S: 0.05 uM, Ouabain: 5 uM) in Xenopus laevis oocytes; type: functional, cell-based; settings: oocyte
[8] = target: T1, Organic anion transporter 3; assay: TP_TRANSPORTER: inhibition of E1S uptake (E1S: 0.05 uM, Indomethacin: 5 uM) in Xenopus laevis oocytes; type: functional, cell-based; settings: oocyte
[9] = target: T1, Organic anion transporter 3; assay: TP_TRANSPORTER: inhibition of E1S uptake (E1S: 0.05 uM, BSP: 5 uM) in Xenopus laevis oocytes; type: functional, cell-based; settings: oocyte
[10] = target: T1, Organic anion transporter 3; assay: TP_TRANSPORTER: inhibition of E1S uptake (E1S: 0.05 uM, Glutarate: 5 uM) in Xenopus laevis oocytes; type: functional, cell-based; settings: oocyte
[11] = target: T1, Organic anion transporter 3; assay: TP_TRANSPORTER: inhibition of E1S uptake (E1S: 0.05 uM, Guanidine: 5 uM) in Xenopus laevis oocytes; type: functional, cell-based; settings: oocyte
[12] = target: T1, Organic anion transporter 3; assay: TP_TRANSPORTER: inhibition of E1S uptake (E1S: 0.05 uM, Ibuprofen: 5 uM) in Xenopus laevis oocytes; type: functional, cell-based; settings: oocyte
[13] = target: T1, Organic anion transporter 3; assay: TP_TRANSPORTER: inhibition of E1S uptake (E1S: 0.05 uM, AZT: 5 uM) in Xenopus laevis oocytes; type: functional, cell-based; settings: oocyte
[14] = target: T1, Organic anion transporter 3; assay: TP_TRANSPORTER: inhibition of E1S uptake (E1S: 0.05 uM, PCG: 5 uM) in Xenopus laevis oocytes; type: functional, cell-based; settings: oocyte
[15] = target: T1, Organic anion transporter 3; assay: TP_TRANSPORTER: inhibition of E1S uptake (E1S: 0.05 uM, Diclofenac: 5 uM) in Xenopus laevis oocytes; type: functional, cell-based; settings: oocyte
[16] = substrate: CN/C(=N/CCSCc1nc[nH]c1C)NC#N; assay: cells, lysate or membranes named
[17] = substrate: CN(Cc1cnc2nc(N)nc(N)c2n1)c1ccc(C(=O)N[C@@H](CCC(=O)O)C(=O)O)cc1; assay: as §1; type: functional, cell-based, Oocyte
[18] = substrate: Nc1ccc(C(=O)NCC(=O)O)cc1; assay: as §1; type: functional, cell-based, Oocyte
[19] = substrate: C[C@]12CC[C@@H]3c4ccc(OS(=O)(=O)O)cc4CC[C@H]3[C@@H]1CCC2=O; assay: as §1; type: functional, cell-based, Oocyte

O=C(O)c1ccccc1O [SALICYLIC ACID]
Activity [1]: substrate [+]

CCCN(CCC)S(=O)(=O)c1ccc(C(=O)O)cc1 [PROBENECID]
Activity [2]: inhibitor [(at a rough estimate) 10 % of control]

CCCCNc1cc(C(=O)O)cc(S(N)(=O)=O)c1Oc1ccccc1 [BUMETANIDE]
Activity [3]: inhibitor [(at a rough estimate) 10 % of control]

Nc1nc2c(ncn2COCCO)c(=O)[nH]1 [ACYCLOVIR]
Activity [1]: is not a substrate [-]

C[C@@H]1Cc2c(Cl)cc(C(=O)N[C@@H](Cc3ccccc3)C(=O)O)c(O)c2C(=O)O1 [3R14S-OCHRATOXIN A]
Activity [1]: substrate [+]

C=C[C@H]1C[N@@]2CC[C@H]1C[C@@H]2[C@@H](O)c1ccnc2ccc(OC)cc12 [QUINIDINE]
Activity [4]: inhibitor [(at a rough estimate) 55 % of control]

O=C(O)[C@H]1O[C@@H](O)[C@H](O)[C@@H](O)[C@@H]1O [GLUCURONATE]
Activity [1]: is not a substrate [-]

C[C@]12CC[C@H](OS(=O)(=O)O)CC1=CC[C@@H]1[C@@H]2CC[C@]2(C)C(=O)CC[C@@H]12 [PRASTERONE SULFURIC ACID]
Activity [1]: substrate [+] | Activity [5]: inhibitor [(at a rough estimate) 10 % of control]

O=c1[nH]c(=O)c2[nH]c(=O)[nH]c2[nH]1 [URIC ACID]
Activity [1]: substrate [+]

C[C@]12C[C@H](O)[C@H]3[C@@H](CCC4=CC(=O)CC[C@@]43C)[C@@H]1CC[C@@H]2C(=O)CO [CORTICOSTERONE]
Activity [6]: inhibitor [(at a rough estimate) 30 % of control]

C[C@@H]1O[C@@H](O[C@H]2C[C@@H](O)[C@]3(CO)[C@H]4[C@H](O)C[C@]5(C)[C@@H](C6=CC(=O)OC6)CC[C@]5(O)[C@@H]4CC[C@]3(O)C2)[C@H](O)[C@H](O)[C@H]1O [OUABAIN]
Activity [7]: is not an inhibitor [-]

O=C(O)CCC(=O)O [SUCCINIC ACID]
Activity [1]: is not a substrate [-]

COc1ccc2c(c1)c(CC(=O)O)c(C)n2C(=O)c1ccc(Cl)cc1 [INDOMETHACIN]
Activity [8]: inhibitor [(at a rough estimate) 15 % of control]

O=C1OC(c2ccc(O)c(S(=O)(=O)[O-])c2)(c2ccc(O)c(S(=O)(=O)[O-])c2)c2c(Br)c(Br)c(Br)c(Br)c21.[Na+].[Na+] [SULFOBROMOPHTHALEIN SODIUM]
Activity [9]: inhibitor [(at a rough estimate) 55 % of control]

O=C(O)CCCC(=O)O [GLUTARATE]
Activity [10]: inhibitor [(at a rough estimate) 35 % of control] | Activity [1]: substrate [+]

N=C(N)N [GUANIDINE]
Activity [11]: is not an inhibitor [-]

CC(C)Cc1ccc(C(C)C(=O)O)cc1 (centres undefined) [IBUPROFEN]
Activity [12]: inhibitor [(at a rough estimate) 10 % of control] | Activity [1]: is not a substrate [-]

Cc1cn([C@H]2C[C@H](N=[N+]=[N-])[C@@H](CO)O2)c(=O)[nH]c1=O [ZIDOVUDINE]
Activity [13]: is not an inhibitor [-]

CC1(C)S[C@@H]2[C@H](NC(=O)Cc3ccccc3)C(=O)N2[C@H]1C(=O)O [PENICILLIN G]
Activity [14]: inhibitor [(at a rough estimate) 35 % of control]

O=C(O)Cc1ccccc1Nc1c(Cl)cccc1Cl [DICLOFENAC]
Activity [15]: inhibitor [(at a rough estimate) 10 % of control]

C[C@]12CC[C@@H]3c4ccc(O)cc4CC[C@H]3[C@@H]1CC[C@@H]2O[C@@H]1O[C@H](C(=O)O)[C@@H](O)[C@H](O)[C@H]1O [ESTRADIOL 17B GLUCURONIDE]
Activity [1]: substrate [+]

CCCC(CCC)C(=O)O [VALPROIC ACID]
Activity [1]: is not a substrate [-]

B1: Organic anion transporter 3 (Homo sapiens) (protein)
chain: MTFSEILDRVGSMGHFQFLHVAILGLPILNMANHNLLQIFTAATPVHHCRPPHNASTGPWVLPMGPNGKPERCLRFVHPPNASLPNDTQRAMEPCLDGWVYNSTKDSIVTEWDLVCNSNKLKEMAQSIFMAGILIGGLVLGDLSDRFGRRPILTCSYLLLAASGSGAAFSPTFPIYMVFRFLCGFGISGITLSTVILNVEWVPTRMRAIMSTALGYCYTFGQFILPGLAYAIPQWRWLQLTVSIPFFVFFLSSWWTPESIRWLVLSGKSSKALKILRRVAVFNGKKEEGERLSLEELKLNLQKEISLAKAKYTASDLFRIPMLRRMTFCLSLAWFATGFAYYSLAMGVEEFGVNLYILQIIFGGVDVPAKFITILSLSYLGRHTTQAAALLLAGGAILALTFVPLDLQTVRTVLAVFGKGCLSSSFSCLFLYTSELYPTVIRQTGMGVSNLWTRVGSMVSPLVKITGEVQPFIPNIIYGITALLGGSAALFLPETLNQPLPETIEDLENWSLRAKKPKQEPEVEKASQRIPLQPHGPGLGSS
Km [16]: 57.4 µM | Km [17]: 10.9 µM | Km [18]: 87.2 µM | Km [19]: 3.1 µM
